According to ChEMBL document CHEMBL1201862, “PubChem BioAssay data set” (2004):
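Protocol summary: plate cells (96-well), add compound at 5 concentrations, incubate 48 h, interpolate endpoints linearly. Abbreviation: GI50, concentration required for 50% inhibition of growth.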 Activity calls are given as the source filed them. Cut-off read from the data, not from the text of the source: active = GI50 up to about 1.1 µM and inactive = higher.

Legend:
Test in all cases: inhibition of tumour cell growth, NCI panel, 48 h
[1] = system: 786-0
[2] = system: A549
[3] = system: BT-549
[4] = system: COLO 205
[5] = system: EKVX
[6] = system: HOP-92
[7] = system: MOLT-4
[8] = system: NCI-H460
[9] = system: OVCAR-3
[10] = system: OVCAR-4
[11] = system: PC-3
[12] = system: RPMI-8226
[13] = system: SK-MEL-28
[14] = system: SK-MEL-5
[15] = system: SN12C
[16] = system: SW-620
[17] = system: UO-31
[18] = system: KM12
[19] = system: NCI-H522
[20] = system: SK-MEL-2

Measured: GI50

O=C(O)c1cc(O)c2c(c1)Cc1cccc(O)c1C2=O
inactive: [1] 30.5 µM | [2] 31.4 µM | [3] 30.5 µM | [4] 24.2 µM | [5] 22.1 µM | [6] 17.2 µM | [7] 22.7 µM | [8] 23.3 µM | [9] 17.9 µM | [10] 38 µM | [11] 29.2 µM | [12] 21.9 µM | [13] 34.1 µM | [14] 21.1 µM | [15] 16.6 µM | [16] 38.5 µM | [17] 17.4 µM

C1COC2SC3=C(SC(=C4SC5=C(SCCS5)S4)S3)SC2O1 (stereo not drawn)
inactive: [1] 77.8 µM | [2] > 100 µM | [3] > 100 µM | [4] > 100 µM | [5] > 100 µM | [6] > 100 µM | [18] 17.4 µM | [7] > 100 µM | [8] > 100 µM | [19] 31.8 µM | [9] > 100 µM | [10] 31.3 µM | [11] > 100 µM | [13] > 100 µM | [20] > 100 µM | [14] 80.2 µM | [15] > 100 µM | [16] 68.7 µM | [17] > 100 µM

CCCCc1nc(C)oc1C(C)C
inactive: [1] > 100 µM | [2] > 100 µM | [3] > 100 µM | [4] > 100 µM | [5] > 100 µM | [6] > 100 µM | [18] > 100 µM | [7] > 100 µM | [8] > 100 µM | [19] > 100 µM | [9] > 100 µM | [10] > 100 µM | [11] > 100 µM | [13] > 100 µM | [14] > 100 µM | [15] > 100 µM | [16] > 100 µM | [17] > 100 µM

CC1OC(O[C@H]2CC[C@]3(C)[C@H]4CC=C5[C@@H]6[C@@H](C)[C@H](C)CC[C@]6(C(=O)OC6OC(CO)C(O)C(O)C6O)CC[C@@]5(C(=O)O)[C@]4(C)CC[C@H]3C2(C)C)C(O)C(O)C1O (stereo partly drawn)
inactive: [1] > 100 µM | [3] > 100 µM | [4] > 100 µM | [6] > 100 µM | [18] > 100 µM | [7] > 100 µM | [8] > 100 µM | [19] > 100 µM | [9] > 100 µM | [10] > 100 µM | [11] > 100 µM | [20] > 100 µM | [14] > 100 µM | [15] > 100 µM | [16] > 100 µM | [17] > 100 µM

COc1ccc2c(c1)CC[C@@H]1[C@@H]2CC[C@]2(C)C(=O)/C(=C/c3ccc(N(C)C)cc3)C[C@@H]12
inactive: [1] 29.2 µM | [2] 41.9 µM | [3] 29.1 µM | [4] > 100 µM | [5] 63.5 µM | [6] 24.2 µM | [18] 84.3 µM | [7] > 100 µM | [8] 39.8 µM | [9] 23 µM | [10] 37.2 µM | [11] 47.2 µM | [12] > 100 µM | [20] 24.9 µM | [14] 73.1 µM | [16] > 100 µM | [17] 98.9 µM

CC(=O)/C=C1\Nc2sc(C)c(C)c2C(=O)S1
inactive: [1] 62.8 µM | [2] > 100 µM | [3] 53 µM | [4] > 100 µM | [5] 24.9 µM | [6] > 100 µM | [18] 29.2 µM | [7] 10 µM | [8] 10 µM | [9] 44.1 µM | [10] 42.2 µM | [11] 25.4 µM | [12] 38.6 µM | [13] > 100 µM | [20] 24.2 µM | [14] 41 µM | [15] 84.3 µM | [16] 63.5 µM | [17] 54 µM

O=C(CNc1ccccc1[N+](=O)[O-])Nn1c(-c2ccccc2)nc2ccccc2c1=O
inactive: [1] 18.9 µM | [2] 43.5 µM | [3] 17.9 µM | [4] 20.6 µM | [5] 19.6 µM | [6] 12.4 µM | [18] > 10 µM | [7] 16.1 µM | [8] 20.9 µM | [19] > 10 µM | [9] 29.4 µM | [10] 17 µM | [11] 22.2 µM | [12] 20.9 µM | [13] 23.5 µM | [14] 10.4 µM | [15] 25.8 µM | [16] 19.1 µM | [17] 18.7 µM

COC(=O)[C@H](Cc1c[nH]c2ccccc12)NP(=O)(O)OCC1C=CC(n2cc(C)c(=O)[nH]c2=O)O1 (stereo partly drawn)
inactive: [1] > 100 µM | [3] > 100 µM | [4] > 100 µM | [5] > 100 µM | [6] > 100 µM | [18] > 100 µM | [7] > 100 µM | [9] > 100 µM | [10] > 100 µM | [11] > 100 µM | [12] > 100 µM | [13] > 100 µM | [20] > 100 µM | [14] > 100 µM | [15] > 100 µM | [16] > 100 µM

CN(C)c1ccc(/C=C2\N=C(c3ccccc3)N(c3ccc4c(c3)Sc3cc(N5C(=O)/C(=C/c6ccc(N(C)C)cc6)N=C5c5ccccc5)ccc3N4)C2=O)cc1
inactive: [1] 22.9 µM | [2] 22.1 µM | [3] 22.9 µM | [4] > 100 µM | [5] 25.8 µM | [6] 18.3 µM | [18] > 100 µM | [7] 61.5 µM | [8] 23.9 µM | [9] 12.2 µM | [10] 22.6 µM | [11] 16.9 µM | [12] 20.4 µM | [13] 50.8 µM | [20] 18.6 µM | [14] 17.9 µM | [15] 19.1 µM | [16] 44.7 µM | [17] 18.2 µM

C[C@]12CC[C@@H]3c4ccc(O)cc4CC[C@H]3[C@@H]1C/C(=C\c1ccc([N+](=O)[O-])cc1)C2=O
inactive: [1] > 100 µM | [2] 57.9 µM | [3] > 100 µM | [4] > 100 µM | [5] 52.6 µM | [18] 42.6 µM | [7] > 100 µM | [8] 48 µM | [19] 24.1 µM | [9] 74 µM | [10] > 100 µM | [11] 37.2 µM | [12] > 100 µM | [13] > 100 µM | [20] 44.6 µM | [14] 41.5 µM | [15] > 100 µM | [16] > 100 µM | [17] 77.1 µM

NC(Cc1ccc(O)cn1)C(=O)NC(C(=O)O)c1ccccc1 (stereo not drawn)
inactive: [1] > 100 µM | [2] > 100 µM | [3] > 100 µM | [4] > 100 µM | [5] > 100 µM | [6] > 100 µM | [18] > 100 µM | [7] > 100 µM | [8] > 100 µM | [19] > 100 µM | [9] > 100 µM | [10] > 100 µM | [11] > 100 µM | [12] > 100 µM | [13] > 100 µM | [14] > 100 µM | [15] > 100 µM | [16] > 100 µM | [17] > 100 µM
